Measured values from US6835722B1, “Pharmaceutical compositions and preparations for treatment of metabolic bone disease” (Yuyu Industrial Co., Ltd., priority 1999, dated 2004).

Experiments:
[1] = system: female Sprague-Dawley white rats; assay: Measurement of serum calcium concentration (Technicon autoanalyzer); conditions: single treatment (calcitriol 0.1 μg/kg or alendronate 1.0 mg/kg), 2 months, FIG. 3
Procedure: (§1) Twelve week old matured female Sprague-Dawley white rats were supplied from Daehan Biolink Co., Ltd. (Seoul, Korea) and raised in a dean room of an animal experiment laboratory in a medical school of Seoul National University. The white rats were given a week to adapt by feeding them with normal feedstuff (Purina, chow diet) and then they were divided into 6 different groups wherein each group consisted of 10 white rats with similar weight distribution, and ovariostereses were performed to all of them. The white rats were allowed to freely drink water and have food under a standardized condition of 22° C., 50% humidity, 12 h dark/light cycle.
(§2) The amount of medication administered in each group is shown in the following table 1 and the control group was administered only with equal amount of palm oil and physiological saline used in the experimental groups.
(§3) After 2 months of the onset of the above medications, 24 h urine samples were collected from the white rats by using a metabolic cage, centrifuged and then stored at −70° C. The white rats under experiment were fasted overnight decapitated, and their blood samples were collected. White rats sera were then obtained by centrifuging those blood samples and were stored at −70° C. Tibiae were separated by ablation and fixed with 4% formalin at pH 7.4.

[2] = system: female Sprague-Dawley white rats; assay: Bone remodeling index: serum osteocalcin and alkaline phosphatase; format: in vivo; conditions: single treatment (calcitriol 0.1 μg/kg or alendronate 1.0 mg/kg), 2 months; for concentration of serum osteocalcin: FIG. 5; for activity of alkaline phosphatase: FIG. 6
Procedure: as §1, §2, §3
The activity level of serum alkaline phosphatase was measured by using Technicon autoanalyzer and the concentration of osteocalcin was measured by using a kit (OSCA test, Brahams, Berlin, Germany) which uses RIA method.

[3] = system: female Sprague-Dawley white rats; assay: Measurement of calcium excretion in urine (calcium/creatine of 24 h urine); format: in vivo; conditions: single treatment (calcitriol 0.1 μg/kg or alendronate 1.0 mg/kg), 2 months, FIG. 4
Procedure: as §1, §2, §3

[4] = system: female Sprague-Dawley white rats; assay: Bone histomorphometry: area of trabecular bone of tibia after ovariosteresis; format: in vivo; conditions: single treatment (calcitriol 0.1 μg/kg or alendronate 1.0 mg/kg), oral 5 days/week for 2 months after ovariosteresis; image analyzer, FIG. 2
Procedure: as §1, §2, §3

post-menopausal women = conditions: clinical study; cited from earlier work

SMILES	serum calcium concentration [1]	concentration of serum osteocalcin [2]	activity of alkaline phosphatase [2]	calcium excretion in urine (calcium/creatine, 24 h urine) [3]	area of trabecular bone [4]	reduction of rate of occurrence of new spinal fracture compared to placebo group (post-menopausal women)
C=C1/C(=C\C=C2/CCC[C@]3(C)[C@@H]([C@H](C)CCCC(C)(C)O)CC[C@@H]23)C[C@@H](O)C[C@@H]1O [calcitriol]	significant increase	slight increase	slight increase	increased markedly	not increased	–
NCCCC(O)(P(=O)(O)O)P(=O)(O)O [alendronate, 4-amino-hydroxybutylidine-1,1-bisphosphonate]	–	decreased	decreased	–	drastically increased	about 48%
